The source of these data is EPA's CvTdb concentration-time database.

Data set [1] has as its system Rat. Briefly: concentration in liver after dosing. The following applies: 12 h; dosed: Fluorotelomer alcohol 8+2; 80 mg/kg; oral; Female; Harlan Sprague Dawley.
Data set [2] deals with Rat. Briefly: concentration in liver after dosing. The following applies: 12 h; dosed: Fluorotelomer alcohol 8+2; 24 mg/kg; oral; Male; Harlan Sprague Dawley.
Data set [3] has as its system Rat. Put plainly: concentration in brain after dosing. The following applies: 3 h; dosed: Fluorotelomer alcohol 8+2; 24 mg/kg; oral; Male; Harlan Sprague Dawley.
Data set [4] concerns Rat. Briefly: concentration in plasma after dosing. The settings on record: 4 h; dosed: Wyeth-14643; 5.0 mg/kg; oral; Male; Sprague-Dawley.
For data set [5], the system named is Rat. Briefly: concentration in plasma after dosing. The settings on record: 20 h; dosed: Di-n-butyl phthalate; 200 mg/kg; oral; Male; Sprague-Dawley.
Data set [6] deals with Rat. Put plainly: concentration in plasma after dosing. The following applies: 1 h; dosed: Di-n-butyl phthalate; 50 mg/kg; oral; Male; Sprague-Dawley.
The test system of data set [7] is Rat. Put plainly: concentration in plasma after dosing. The following applies: 20 h; dosed: Di-n-butyl phthalate; 100 mg/kg; oral; Male; Sprague-Dawley.
Data set [8] has as its system Rat. Briefly: concentration in plasma after dosing. The following applies: 3 h; dosed: Di-n-butyl phthalate; 100 mg/kg; oral; Male; Sprague-Dawley.
Data set [9] deals with Rat. Briefly: concentration in plasma after dosing. The following applies: dosed: dichloroacetic acid, 40 mg/kg, oral, Female, Harlan Sprague Dawley.
The test system of data set [10] is Rat. Briefly: concentration in plasma after dosing. The following applies: dosed: dichloroacetic acid, 100 mg/kg, oral, Male, F344.
Data set [11] has as its system Rat. Put plainly: concentration in plasma after dosing. The following applies: 20 min; dosed: dichloroacetic acid; 10 mg/kg; iv; Male; F344.
Data set [12] concerns Rat. Put plainly: concentration in liver after dosing. The following applies: 24 h; dosed: Perfluorodecanoic acid; 10 mg/kg; oral; Female; Harlan Sprague Dawley.
For data set [13], the system named is Rat. Put plainly: concentration in plasma after dosing. The settings on record: dosed: Perfluorodecanoic acid, 2 mg/kg, oral, Male, Harlan Sprague Dawley.
The test system of data set [14] is Rat. Briefly: concentration in liver after dosing. The following applies: 3360 h; dosed: Perfluorodecanoic acid; 10 mg/kg; oral; Female; Harlan Sprague Dawley.
In data set [15] the test system is Rat. Briefly: concentration in plasma after dosing. The settings on record: dosed: Perfluorodecanoic acid, 2 mg/kg, iv, Male, F344.
Data set [16] deals with Rat. Briefly: concentration in liver after dosing. The settings on record: 10 h; dosed: Thiodiglycolic Acid; 20 mg/kg; iv; Female; Harlan Sprague Dawley.
Data set [17] deals with Rat. Briefly: concentration in liver after dosing. The following applies: 1 h; dosed: Thiodiglycolic Acid; 20 mg/kg; iv; Female; Harlan Sprague Dawley.
In data set [18] the test system is Rat. Briefly: concentration in heart after dosing. The settings on record: 2 h; dosed: Thiodiglycolic Acid; 20 mg/kg; iv; Male; Harlan Sprague Dawley.
Data set [19] has as its system Rat. Put plainly: concentration in liver after dosing. The following applies: 4 h; dosed: Thiodiglycolic Acid; 20 mg/kg; iv; Male; Harlan Sprague Dawley.
For data set [20], the system named is Rat. Briefly: concentration in thymus after dosing. The following applies: 10 h; dosed: Thiodiglycolic Acid; 20 mg/kg; iv; Female; Harlan Sprague Dawley.
In data set [21] the test system is Rat. Put plainly: concentration in liver after dosing. The settings on record: 5.333 h; dosed: Thiodiglycolic Acid; 20 mg/kg; iv; Female; Harlan Sprague Dawley.
Data set [22] has as its system Rat. Briefly: concentration in heart after dosing. The following applies: 6.667 h; dosed: Thiodiglycolic Acid; 20 mg/kg; iv; Female; Harlan Sprague Dawley.
The test system of data set [23] is Rat. Briefly: concentration in plasma after dosing. The settings on record: 2 h; dosed: Thiodiglycolic Acid; 20 mg/kg; iv; Female; Harlan Sprague Dawley.
Data set [24] concerns Rat. Put plainly: concentration in liver after dosing. The settings on record: 3 h; dosed: Thiodiglycolic Acid; 20 mg/kg; iv; Female; Harlan Sprague Dawley.
Data set [25] has as its system Rat. Put plainly: concentration in liver after dosing. The settings on record: 10 h; dosed: Thiodiglycolic Acid; 20 mg/kg; iv; Male; F344.
Data set [26] deals with Rat. Briefly: concentration in plasma after dosing. The following applies: 40 min; dosed: Thiodiglycolic Acid; 20 mg/kg; iv; Male; Harlan Sprague Dawley.
The subject of data set [27] is Rat. Briefly: concentration in liver after dosing. The settings on record: 10 min; dosed: Thiodiglycolic Acid; 20 mg/kg; iv; Male; F344.
For data set [28], the system named is Rat. Briefly: concentration in plasma after dosing. The settings on record: 4 h; dosed: Thiodiglycolic Acid; 20 mg/kg; iv; Male; Harlan Sprague Dawley.
The subject of data set [29] is Rat. Briefly: concentration in plasma after dosing. The settings on record: 0.5 h; dosed: Primidone; 130 mg/kg; oral; Female; F344.
For data set [30], the system named is Rat. Put plainly: concentration in plasma after dosing. The following applies: 12 h; dosed: Primidone; 30 mg/kg; oral; Male; F344.
Data set [31] deals with Rat. Put plainly: concentration in plasma after dosing. The following applies: 6 h; dosed: Bis 2-Chloroethoxy Methane; 20 mg/kg; iv; Male; F344.
Data set [32] concerns Rat. Briefly: concentration in liver after dosing. The settings on record: 40 min; dosed: Bis 2-Chloroethoxy Methane; 20 mg/kg; iv; Female; F344.
Data set [33] concerns Rat. Briefly: concentration in plasma after dosing. The following applies: 2 h; dosed: Bis 2-Chloroethoxy Methane; 20 mg/kg; iv; Male; F344.
Data set [34] has as its system Rat. Put plainly: concentration in plasma after dosing. The settings on record: dosed: Bis 2-Chloroethoxy Methane, 40 mg/kg, iv, Male, Harlan Sprague Dawley.
Data set [35] has as its system Rat. Briefly: concentration in heart after dosing. The settings on record: 10 min; dosed: Bis 2-Chloroethoxy Methane; 20 mg/kg; iv; Female; F344.
The test system of data set [36] is Rat. Briefly: concentration in liver after dosing. The following applies: 1 h; dosed: Bis 2-Chloroethoxy Methane; 20 mg/kg; iv; Male; F344.
The test system of data set [37] is Rat. Briefly: concentration in thymus after dosing. The settings on record: 3 h; dosed: Bis 2-Chloroethoxy Methane; 20 mg/kg; iv; Male; F344.
In data set [38] the test system is Rat. Briefly: concentration in liver after dosing. The following applies: 40 min; dosed: Bis 2-Chloroethoxy Methane; 20 mg/kg; iv; Male; F344.

Turning to `OCCC(F)(F)C(F)(F)C(F)(F)C(F)(F)C(F)(F)C(F)(F)C(F)(F)C(F)(F)F` [Fluorotelomer alcohol 8+2], the concentration in liver in the data set with Rat [1] worked out at 434 ng/g; with Rat [2] it was 968 ng/g. The compound also registered a concentration in brain with Rat [3] of 1780 ng/g.

In turn, `Cc1cccc(Nc2cc(Cl)nc(SCC(=O)O)n2)c1C` came in with a concentration in plasma in the data set with Rat [4] of 1200 ng/mL.

On to `CCCCOC(=O)c1ccccc1C(=O)O` [Mono-n-butyl phthalate], for which the concentration in plasma was 1290 ng/mL in the data set with Rat [5], 3070 ng/mL with Rat [6], 414 ng/mL in the data set with Rat [7] and 6970 ng/mL in the data set with Rat [8].

As for `O=C(O)C(Cl)Cl` [dichloroacetic acid], the concentration in plasma with Rat [9] (5 min) was determined as 4330 ng/mL; with Rat [9] (1.25 h), 5690 ng/mL; in the data set with Rat [10] (0.25 h), 15500 ng/mL; with Rat [10] (6 h), 29500 ng/mL; in the data set with Rat [11], 2260 ng/mL.

In the case of `O=C(O)C(F)(F)C(F)(F)C(F)(F)C(F)(F)C(F)(F)C(F)(F)C(F)(F)C(F)(F)C(F)(F)F` [Perfluorodecanoic acid], the figures for the concentration in liver in the data set on Rat [12] and with Rat [14] were 138000 ng/g and 7670 ng/g, respectively. Besides, the concentration in plasma with Rat [13] (1 h) stood at 4030 ng/mL; in the data set with Rat [13] (192 h) it was 4670 ng/mL; in the data set on Rat [13] (2520 h), 645 ng/mL; in the data set on Rat [15] (12 h), 6270 ng/mL; in the data set on Rat [15] (1200 h) it was 874 ng/mL.

`O=C(O)CSCC(=O)O` [Thiodiglycolic Acid]: the concentration in liver stood at 1650 ng/g with Rat [16]; 62700 ng/g in the data set with Rat [17]; 43400 ng/g in the data set on Rat [19]; 4800 ng/g in the data set on Rat [21]; 3470 ng/g with Rat [24]; 7350 ng/g in the data set on Rat [25]. Besides, the concentration in liver in the data set with Rat [27] worked out at 155000 ng/g. For the same compound, the concentration in heart in the data set on Rat [18] is 1440 ng/g; in the data set with Rat [22] it was 246 ng/g. Moreover, the concentration in thymus in the data set on Rat [20] worked out at 254 ng/g. Besides, the concentration in plasma amounted to 1560 ng/mL with Rat [23], 2000 ng/mL in the data set on Rat [26] and 339 ng/mL in the data set on Rat [28].

With `CCC1(c2ccccc2)C(=O)NC(=O)NC1=O` [Phenobarbital], the concentration in plasma is 1140 ng/mL in the data set on Rat [29] and 2660 ng/mL in the data set with Rat [30].

As for `ClCCOCOCCCl` [Bis 2-Chloroethoxy Methane], the concentration in plasma in the data set on Rat [31] was determined as 12.2 ng/mL; in the data set with Rat [33] it was 99.4 ng/mL; in the data set with Rat [34] (20 min), 8380 ng/mL; in the data set with Rat [34] (6.667 h) it was 25.4 ng/mL. Besides, the figures for the concentration in liver in the data set with Rat [32], with Rat [36] and with Rat [38] were 636 ng/g, 2410 ng/g and 4070 ng/g, respectively. Moreover, the concentration in heart in the data set on Rat [35] turned out to be 11400 ng/g. Moreover, the concentration in thymus with Rat [37] worked out at 134 ng/g.
